Experimental data from patent US11541041B1, “Compounds that interact with the Ras superfamily for the treatment of cancers, inflammatory diseases, Rasopathies, and fibrotic disease” (Shy Therapeutics LLC, priority 2017, dated 2023).
Like-named read-outs stand apart in the source and are kept apart here.

Key:
Rac-1 = Rac-1 (Homo sapiens (Human), UniProt P63000); test: Rac and Rho inhibition assay; type: binding; conditions: read-out: Rac-1 % Inh.
Experimental: (§1) Buffer-I: • 50 mM Tris, pH 7.5 • 150 mM NaCl (optional) • 1 mM MgCl2 • 1 mM DTT. • KRas G12D mutant protein was expressed as a His-tagged protein. Purified His-KRas G12D protein was diluted in buffer-I to a final concentration of 3-10 μg/ml. • 200 μl of the diluted His-KRas G12D protein was added to a nickel coated 96 well plate and incubated overnight at 4° C. • The next day, wells were washed 3× in 200 μl of Buffer-I. • Then 200 μl of Buffer-I were added to each well in the presence of 1% DMSO. • Tested compounds were added to the protein-coated wells at a concentration of 20 μM, and incubated for 3 hours at room temperature. While performing IC50 measurements a serial dilution of all tested concentrations was prepared.
(§2) Then 22 μl of Cy3-GTP or Cy5-GTP was added to each well. The labeled GTP was incubated for 45 min. at room temperature. • Following GTP incubation, wells were washed 3× in Buffer-I, and 200 μl of Buffer-I were added to each well. • Following washes, the amount of bound labeled-GTP was measured with an Eppendorf AF2200 plate reader.
(§3) By substituting KRas G12D mutant protein with either Rac-1 or Rho-A under the assay conditions described in Example 5, Rac-1 and Rho-A inhibition, respectively, were each determined.

Rho-A = Rho-A (Homo sapiens (Human), UniProt P61586); test: Rac and Rho inhibition assay; type: binding; conditions: read-out: Rho-A % Inh.
Experimental: as §1, §2, §3

[1] = target: KRas G12D/Q61H double mutant (Homo sapiens (Human), UniProt P01116, G12D/Q61H); test: Ras GTP binding domain inhibition assay
Experimental: as §1, §2
By substituting KRas G12D mutant protein with KRas G12C mutant, KRas wild type, KRas Q61H mutant, KRas G12D/Q61H double mutant or KRas G12C/Q61H double mutant under the assay conditions described above, KRas G12C mutant KRas wild type, KRas Q61H mutant, KRas G12D/Q61H double mutant and KRas G12C/Q61H double mutant inhibition, respectively, were each determined.

TNFα = test: Mouse TNF alpha quantification assay (LPS-stimulated RAW 264.7, ELISA); type: cell-based; conditions: Mus musculus, RAW264.7, 30 μM; RAW 264.7 murine leukemia virus transformed macrophage cell lines, LPS stimulation; read-out: TNF-α % Inhibition at 30 μM
Experimental: (§4) Cell lines: Abelson murine leukemia virus transformed macrophage cell line RAW 264.7 was purchased from ATCC and grown in complete DMEM-High Glucose medium supplemented with penicillin (100 U/mL), streptomycin (100 μg/mL), and 10% heat-inactivated FBS at 37° C. in a humidified incubator with 5% CO2.
(§5) Method: Cells were plated at 40000 cells/well density in a 96-wells plate. After a 3-hour incubation, macrophages were starved with DMEM plus 0.5% FBS o/n. The next day the small molecules to be tested were added to the cells in the final concentration of 30 μM (with 0.3% DMSO) 3 hours prior to LPS stimulation (100 ng/ml). After LPS stimulation cells were incubated at 37° C. for 16h. At the end of the incubation period, culture media were collected and production of LPS-induced TNFα and IL6 cytokine was measured using ELISA detection kits.
(§6) Sandwich ELISA: The ELISA Immunoassays Quantikine Mouse TNF-alpha (catalog number MTA00B) and IL6 (catalog number M6000B) were purchased from R&D Systems Inc., Minneapolis, Minn. These 4.5 hours solid phase ELISAs were used to measure mouse TNFα or IL6 levels in macrophages culture supernatants. Assays were executed according to the manufacturer specifications.

IL6 = test: Mouse IL6 quantification assay (LPS-stimulated RAW 264.7, ELISA); type: cell-based; conditions: Mus musculus, RAW264.7, 30 μM; RAW 264.7 murine leukemia virus transformed macrophage cell lines, LPS stimulation; read-out: IL-6 % Inhibition at 30 μM
Experimental: as §4, §5, §6

[2] = 20 μM compound, read-out: % Inhibition at 20 μM, KRas G12D Q61H
[3] = at 20 μM, read-out: KRas G12D Q61H % Inh.
[4] = 20 μM, read-out: KRas G12D Q61H % Inh.

Chain of KRas G12D/Q61H double mutant (P01116-2 other isoform, or with tags, fused parts or gaps G12D/Q61H): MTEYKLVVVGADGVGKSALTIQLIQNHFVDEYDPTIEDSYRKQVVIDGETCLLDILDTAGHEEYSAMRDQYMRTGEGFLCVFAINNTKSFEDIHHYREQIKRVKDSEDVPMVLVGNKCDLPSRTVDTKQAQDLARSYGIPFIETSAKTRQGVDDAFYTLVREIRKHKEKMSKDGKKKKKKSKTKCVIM
Chain of Rho-A (P61586 whole entry): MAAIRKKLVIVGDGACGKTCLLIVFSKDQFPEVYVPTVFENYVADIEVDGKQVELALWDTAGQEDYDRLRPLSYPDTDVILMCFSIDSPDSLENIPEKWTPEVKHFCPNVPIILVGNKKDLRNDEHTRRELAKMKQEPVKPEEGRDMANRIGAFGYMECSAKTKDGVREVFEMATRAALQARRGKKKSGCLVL

O=C(c1csc2c(O)nc(-c3ccccn3)nc12)N1CCNC(c2ccc(Cl)cc2)C1 (stereo not drawn)
inhibition at 20 µM (Rac-1): 76 to 100% | inhibition at 20 µM (Rho-A): 76 to 100%

O=C1C2C=CC=CC2OC(O)C1Cc1cc(Cl)c2cccnc2c1O (stereo not drawn)
inhibition at 20 µM [1, 2]: 25 to 50%

Oc1nc(-c2ccccn2)nc2c(-c3ccc4c(c3)CCCO4)csc12
inhibition at 20 µM (Rho-A): 51 to 75%

CCOc1ccc(C(F)(F)F)cc1NCc1ncc(C)o1
inhibition at 20 µM [1, 2]: 25 to 50%

C=C(CNc1nc(-c2ccccn2)nc2scc(-c3ccccc3)c12)NC
inhibition at 20 µM [1, 2]: 25 to 50%

COc1cc(-c2csc3c(O)nc(-c4ccccn4)nc23)cnc1C(F)(F)F
inhibition at 20 µM (Rho-A): 51 to 75%

Oc1nc(-c2ccccn2)nc2c(-c3cncc(C(F)(F)F)c3)csc12
inhibition at 20 µM (Rac-1): 1 to 25%

CC(C)Cc1csc2c(N)nc(-c3ccccn3)nc12
inhibition at 30 µM (TNFα): 76 to 100% | inhibition at 30 µM (IL6): 76 to 100%

Cc1c(C(=O)N2CCN(c3ccccc3)CC2)sc2c(O)nc(-c3ccccn3)nc12
inhibition at 20 µM (Rho-A): 76 to 100%

CN(C(=O)c1ccc(COc2ccccc2F)o1)c1cccs1
inhibition at 20 µM [1, 2]: 25 to 50%

Cc1cc2nc(-c3ccccn3)nc(O)c2s1 [drawing 2263]
inhibition at 30 µM (TNFα): 1 to 25% | inhibition at 30 µM (IL6): 1 to 25%

COc1ccc(N2CCN(C(=O)c3csc4c(O)cc(-c5ccccn5)cc34)CC2)cc1O
inhibition at 20 µM [1, 3]: 1 to 25% | inhibition at 20 µM (Rac-1): 76 to 100% | inhibition at 20 µM (Rho-A): 76 to 100%

Cc1ccc(CC(=O)Nc2nnc(-c3ccccn3)[nH]2)cc1
inhibition at 30 µM (IL6): 51 to 75%

COC(=O)c1csc2nc(-c3ccccn3)nc(O)c12
inhibition at 30 µM (TNFα): 0% | inhibition at 30 µM (IL6): 51 to 75%

CN(C)Cc1ccc(-c2csc3c(O)nc(-c4ccccn4)nc23)cc1F
inhibition at 20 µM (Rac-1): 76 to 100% | inhibition at 20 µM (Rho-A): 76 to 100%

O=[N+]([O-])c1cc(C(F)(F)F)ccc1Sc1nc2c(c(C(F)(F)F)n1)CCCC2
inhibition at 20 µM [1, 4]: 51 to 75%

COc1ccc(CCNC(=O)c2csc3nc(-c4ccccn4)nc(N4CCSCC4)c23)cn1 [drawing 3751]
inhibition at 20 µM [1, 3]: 25 to 50% | inhibition at 20 µM (Rac-1): 25 to 50% | inhibition at 20 µM (Rho-A): 1 to 25%

COCc1ccc(-c2csc3c(O)nc(-c4ccccn4)nc23)cc1F
inhibition at 20 µM (Rac-1): 76 to 100%

COCCNc1nc(-c2nccn2C)nc2sc(-c3ccccc3)c(-c3ccccc3)c12 [drawing 3879]
inhibition at 20 µM (Rac-1): 76 to 100% | inhibition at 20 µM (Rho-A): 51 to 75%

O=C(NCCc1cnc(O)nc1)c1csc2nc(-c3ccccn3)nc(N3CCSCC3)c12 [drawing 2281]
inhibition at 30 µM (TNFα): 0% | inhibition at 30 µM (IL6): 51 to 75%

Cc1cc2nc(-c3ccccn3)nc(O)c2s1 [drawing 3817]
inhibition at 20 µM (Rac-1): 76 to 100% | inhibition at 20 µM (Rho-A): 76 to 100%

C=CCc1cc(COC)ccc1OCC(=O)NCc1ccc(OC)cc1
inhibition at 20 µM [1, 2]: 25 to 50%

Cn1cc(-c2nc(C(=O)Nc3nnc(-c4ccccn4)[nH]3)cs2)cn1
inhibition at 30 µM (TNFα): 0%

O=c1[nH]c(-c2cncc(OCC(F)F)c2)nc2cc(F)c(F)cc12
inhibition at 20 µM [1, 2]: 25 to 50%

Cc1sc2c(N)nc(-c3ccccn3)nc2c1-c1ccccc1Cl
inhibition at 30 µM (TNFα): 51 to 75% | inhibition at 30 µM (IL6): 51 to 75%

O=C(c1csc2c(O)nc(-c3ccccn3)nc12)N1CCNC(c2ccc(O)cc2)C1 (stereo not drawn)
inhibition at 20 µM (Rac-1): 76 to 100% | inhibition at 20 µM (Rho-A): 76 to 100%

O=c1nc(-c2ccccn2)[nH]c2ccsc12
inhibition at 20 µM [1, 4]: 51 to 75%

CCOC(=O)c1cnc(N(C2CC2)S(=O)(=O)c2ccc(OC)c(C)c2)s1
inhibition at 20 µM [1, 2]: 1 to 25%

CN(C)CCOc1cccc(-c2csc3c(O)nc(-c4ccccn4)nc23)c1
inhibition at 20 µM (Rac-1): 76 to 100% | inhibition at 20 µM (Rho-A): 76 to 100%

Oc1nc(-c2ccccn2)nc2c(C3CC3)csc12
inhibition at 20 µM (Rho-A): 51 to 75%
